From PMC3499949 (Journal of medicinal chemistry, 2012) come the findings set out here.

SMILES strings stand for the structures.

For series [1], the target named is T1, DOR (Mus musculus, UniProt P32300). Kind of series: [35S]GTP-γ-S binding assay, antagonist shift design, DOR. Format: biochemical. For orientation: GTPγS is a poorly hydrolysed GTP analogue; its binding reports G protein activation.
For series [2], the target named is T2, hMOR (Homo sapiens, UniProt P35372). Description: [35S]GTP-γ-S binding assay, agonist stimulation, MOR. Format: biochemical. To be noted: stimulation of [35S]GTP-γ-S binding; no stim = no stimulation at 10 µM.
T2 sequence (P35372 whole entry): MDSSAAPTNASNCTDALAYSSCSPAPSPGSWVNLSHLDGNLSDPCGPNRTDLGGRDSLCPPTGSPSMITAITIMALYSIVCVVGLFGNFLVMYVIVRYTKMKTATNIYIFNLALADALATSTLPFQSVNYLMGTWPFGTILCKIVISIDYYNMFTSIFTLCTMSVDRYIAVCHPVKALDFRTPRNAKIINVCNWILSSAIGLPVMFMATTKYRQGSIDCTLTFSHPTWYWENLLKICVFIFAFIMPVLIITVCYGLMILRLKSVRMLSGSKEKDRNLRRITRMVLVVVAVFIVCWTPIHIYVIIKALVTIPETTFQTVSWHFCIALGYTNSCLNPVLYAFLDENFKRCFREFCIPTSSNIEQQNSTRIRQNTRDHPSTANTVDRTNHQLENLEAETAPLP
Series [3] addresses T2, hMOR. Description: [35S]GTP-γ-S binding assay, antagonist shift design, MOR. The series is classed as biochemical.
Series [4] has as its target T3, hKOR (Homo sapiens, UniProt P41145). Kind of series: [35S]GTP-γ-S binding assay, antagonist shift design, KOR. Format: biochemical.
For series [5], the target named is T1, DOR. Description: [35S]GTP-γ-S binding assay, agonist stimulation, DOR. The note with it: for DOR EC50: stimulation of [35S]GTP-γ-S binding, no stim = no stimulation at 10 µM.
The test system of series [6] is mice. Description: 55 °C warm-water tail-withdrawal assay, i.c.v. administration. The note with it: mouse. Format: in vivo, Male ICR mice.
The subject of series [7] is mice. The series is classed as in vivo, Male ICR mice. To be noted: mouse, i.c.v.
For another series, the target named is hDOR (Homo sapiens, UniProt P41143). Description: Radioligand displacement binding, [3H]DADLE, CHO cell membranes expressing hDOR. To be noted: 18a vs 17b, 18d vs 17f.
hDOR, sequence (P41143 whole entry): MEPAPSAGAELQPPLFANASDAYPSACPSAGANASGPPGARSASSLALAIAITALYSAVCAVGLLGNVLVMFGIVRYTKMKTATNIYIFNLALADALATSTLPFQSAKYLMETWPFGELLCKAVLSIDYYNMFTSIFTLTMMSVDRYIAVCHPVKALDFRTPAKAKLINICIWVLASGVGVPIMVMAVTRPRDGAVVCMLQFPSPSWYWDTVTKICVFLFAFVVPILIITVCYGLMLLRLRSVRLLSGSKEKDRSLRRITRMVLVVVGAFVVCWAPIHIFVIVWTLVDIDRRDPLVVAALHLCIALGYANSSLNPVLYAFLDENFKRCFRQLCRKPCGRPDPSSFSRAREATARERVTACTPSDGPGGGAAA
Series [8] concerns the target T3, hKOR. Kind of series: [35S]GTP-γ-S binding assay, agonist stimulation, KOR. The series is classed as biochemical. The note with it: stimulation of [35S]GTP-γ-S binding; no stim = no stimulation at 10 µM.

T3 sequence (P41145 whole entry): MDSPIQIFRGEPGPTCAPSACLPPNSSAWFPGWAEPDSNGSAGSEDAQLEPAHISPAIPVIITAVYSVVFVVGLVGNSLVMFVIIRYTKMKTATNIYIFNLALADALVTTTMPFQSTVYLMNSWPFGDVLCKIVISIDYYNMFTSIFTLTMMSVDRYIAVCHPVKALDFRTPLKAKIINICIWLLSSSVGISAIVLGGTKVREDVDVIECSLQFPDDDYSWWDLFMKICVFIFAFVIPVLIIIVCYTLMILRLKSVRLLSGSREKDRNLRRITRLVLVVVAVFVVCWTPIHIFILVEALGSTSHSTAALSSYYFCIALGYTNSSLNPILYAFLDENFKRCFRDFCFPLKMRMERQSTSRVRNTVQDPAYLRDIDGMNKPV
T1 sequence (P32300 whole entry): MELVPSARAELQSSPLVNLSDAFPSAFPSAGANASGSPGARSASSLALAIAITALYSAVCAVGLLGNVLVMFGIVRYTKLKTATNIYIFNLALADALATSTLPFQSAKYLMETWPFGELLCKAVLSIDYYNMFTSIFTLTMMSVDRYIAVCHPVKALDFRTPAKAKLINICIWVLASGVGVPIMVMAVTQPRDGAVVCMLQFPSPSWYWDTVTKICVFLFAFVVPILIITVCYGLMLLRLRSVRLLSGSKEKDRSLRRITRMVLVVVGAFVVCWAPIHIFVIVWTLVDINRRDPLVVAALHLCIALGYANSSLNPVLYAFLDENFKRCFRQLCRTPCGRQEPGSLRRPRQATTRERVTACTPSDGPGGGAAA

As to `O=C(CCc1ccccc1)O[C@@]12Cc3cc(-c4ccc(Cl)cc4)cnc3[C@@H]3Oc4c(O)ccc5c4[C@@]31CCN(CC1CC1)[C@@H]2C5` [18c, 5′-(4-Chlorophenyl)-17-(cyclopropylmethyl)-6,7-didehydro-4,5α-epoxy-3-hydroxy-14-(3-phenylpropionyloxy)pyrido[2′,3′:6,7]morphinan], the Kb – broadly, the equilibrium dissociation constant of an antagonist, usually derived from a functional assay – is 1.86 ± 0.21 nM on DOR [1], 13 ± 1.7 nM at hMOR [3] and 14 ± 2 nM on hKOR [4]. Besides, the “MOR EC50” value at hMOR [2] is listed as “no stim”. At DOR [5], the “DOR EC50” value was “no stim”.

`CN1CC[C@]23c4c5ccc(O)c4O[C@H]2c2ncc(-c4ccc(Cl)cc4)cc2C[C@@]3(OC/C=C/c2ccccc2)[C@H]1C5` [17g, 5′-(4-Chlorophenyl)-14-cinnamyloxy-6,7-didehydro-4,5α-epoxy-3-hydroxy-17-methylpyrido[2′,3′:6,7]morphinan]: in the series on mice [6], the “dose for maximal antinociception” value worked out at 1 nmol. The “toxicity on repeated administration” value in the series with mice [7] was “undue toxicity”. Moreover, the EC50 (in general, the concentration that produces a half-maximal response) on DOR [5] was 0.59 ± 0.05 nM.

Turning to `O=C(Cc1ccccc1)O[C@@]12Cc3cc(-c4ccc(Cl)cc4)cnc3[C@@H]3Oc4c(O)ccc5c4[C@@]31CCN(CC1CC1)[C@@H]2C5` [18b, 5′-(4-Chlorophenyl)-17-(cyclopropylmethyl)-6,7-didehydro-4,5α-epoxy-3-hydroxy-14-(phenylacetoxy)pyrido[2′,3′:6,7]morphinan], the Kb at DOR [1] came to 0.37 ± 0.04 nM; at hMOR [3] it was 0.48 ± 0.06 nM; on hKOR [4], 7 ± 2 nM. In addition, the “MOR EC50” value at hMOR [2] is “no stim”. In addition, the “DOR EC50” value on DOR [5] was “no stim”.

For `O=C(O[C@@]12Cc3cc(-c4ccc(Cl)cc4)cnc3[C@@H]3Oc4c(O)ccc5c4[C@@]31CCN(CC1CC1)[C@@H]2C5)c1ccccc1` [18a, 14-Benzoyloxy-5′-(4-chlorophenyl)-17-(cyclopropylmethyl)-6,7-didehydro-4,5α-epoxy-3-hydroxypyrido[2′,3′:6,7]morphinan], the Kb on DOR [1] is 218 ± 2 nM; at hMOR [3], 261 ± 36 nM; at hKOR [4], 126 ± 13 nM. Further, the “MOR EC50” value at hMOR [2] is recorded as “no stim”. The “fold weaker in binding to DOR compared to 14-benzyloxy counterpart” value on hDOR came to 45 fold. In addition, at DOR [5], the “DOR EC50” value is given as “no stim”. For the same compound, the “KOR EC50” value at hKOR [8] is reported as “no stim”.

As to `CN1CC[C@]23c4c5ccc(O)c4O[C@H]2[C@@H](O)C=C[C@H]3[C@H]1C5` [Morphine, reference compound], the “dose for maximal antinociception” value in the series on mice [6] was 10 nmol.

As to `CN1CC[C@]23c4c5ccc(O)c4O[C@H]2c2ncc(-c4ccc(Cl)cc4)cc2C[C@@]3(OC(=O)Cc2ccccc2)[C@H]1C5` [18e, 5′-(4-Chlorophenyl)-6,7-didehydro-4,5α-epoxy-3-hydroxy-17-methyl-14-(phenylacetoxy)pyrido[2′,3′:6,7]morphinan], the Kb worked out at 3.38 ± 0.34 nM at DOR [1] and 198 ± 20 nM on hKOR [4]. The same compound gave an EC50 on DOR [5] of 19 ± 6 nM.

As for `CO[C@@]12Cc3cc(-c4ccc(Cl)cc4)cnc3[C@@H]3Oc4c(O)ccc5c4[C@@]31CCN(C)[C@@H]2C5` [17e, 5′-(4-Chlorophenyl)-6,7-didehydro-4,5α-epoxy-3-hydroxy-14-methoxy-17-methylpyrido[2′,3′:6,7]morphinan], the Kb came out at 1.6 ± 0.35 nM on DOR [1] and 17 ± 0.13 nM at hKOR [4]. Moreover, the “dose for maximal antinociception” value with mice [6] is 10 nmol. The “fold weaker analgesic effect than other tested ligands” value in the series on mice [6] (tail-withdrawal) is given as 6 fold. At DOR [5], the “DOR EC50” value is given as “no stim”.

Take `Oc1ccc2c3c1O[C@H]1c4ncc(-c5ccc(Cl)cc5)cc4C=C4[C@@H](C2)N(CC2CC2)CC[C@]431` [compound 23, 5′-(4-Chlorophenyl)-17-(cyclopropylmethyl)-3-hydroxy-6,7,8,14-tetradehydro-4,5α-epoxypyrido[2′,3′:6,7]morphinan]: the results for the Kb on DOR [1], at hMOR [3] and on hKOR [4] were 0.58 ± 0.1 nM, 8 ± 0.89 nM and 19 ± 3 nM, respectively. Also, the “MOR EC50” value at hMOR [2] was “no stim”. Moreover, the “DOR EC50” value on DOR [5] is reported as “no stim”. For the same compound, the “KOR EC50” value at hKOR [8] is “no stim”.

Consider `CN1CC[C@]23c4c5ccc(O)c4O[C@H]2c2ncc(-c4ccc(Cl)cc4)cc2C[C@@]3(OCc2ccccc2)[C@H]1C5` [17f, 14-Benzyloxy-5′-(4-chlorophenyl)-6,7-didehydro-4,5α-epoxy-3-hydroxy-17-methylpyrido[2′,3′:6,7]morphinan], for which the Kb on DOR [1] worked out at 4.54 ± 0.81 nM; on hKOR [4], 83 ± 14 nM. For the same compound, at DOR [5], the EC50 stood at 11 ± 1 nM.

For the compound `Oc1ccc2c3c1O[C@H]1c4ncc(-c5ccc(Cl)cc5)cc4C[C@@]4(OCCCc5ccccc5)[C@@H](C2)N(CC2CC2)CC[C@]314` [17d, 5′-(4-Chlorophenyl)-17-(cyclopropylmethyl)-6,7-didehydro-4,5α-epoxy-3-hydroxy-14-(3-phenylpropoxy)pyrido[2′,3′:6,7]morphinan], the Kb on DOR [1] turned out to be 0.091 ± 0.01 nM. For the same compound, the “dose for maximal antinociception” value in the series with mice [6] was found to be 1 nmol. Moreover, on DOR [5], the “DOR EC50” value was “no stim”.

Consider `CN1CC[C@]23c4c5ccc(O)c4O[C@H]2c2ncc(-c4ccc(Cl)cc4)cc2C[C@@]3(OC(=O)c2ccccc2)[C@H]1C5` [18d, 14-Benzoyloxy-5′-(4-chlorophenyl)-6,7-didehydro-4,5α-epoxy-3-hydroxy-17-methylpyrido[2′,3′:6,7]morphinan], for which the Kb amounted to 45 ± 6 nM on DOR [1], 1270 ± 166 nM on hMOR [3] and 426 ± 47 nM on hKOR [4]. The “fold weaker in binding to DOR compared to 14-benzyloxy counterpart” value on hDOR turned out to be 10 fold. In addition, at DOR [5], the “DOR EC50” value was “no stim”. Besides, the “KOR EC50” value on hKOR [8] is given as “no stim”.

For the compound `CN1CC[C@]23c4c5ccc(O)c4O[C@H]2c2ncc(-c4ccc(Cl)cc4)cc2C[C@@]3(OC(=O)CCc2ccccc2)[C@H]1C5` [18f, 5′-(4-Chlorophenyl)-6,7-didehydro-4,5α-epoxy-3-hydroxy-17-methyl-14-(3-phenylpropionyloxy)pyrido[2′,3′:6,7]morphinan], the Kb turned out to be 1.64 ± 0.3 nM at DOR [1] and 18 ± 0.2 nM on hKOR [4]. Also, at DOR [5], the EC50 is 5.52 ± 0.53 nM.

With `Oc1ccc2c3c1O[C@H]1c4ncc(-c5ccc(Cl)cc5)cc4C[C@@]4(OCc5ccccc5)[C@@H](C2)N(CC2CC2)CC[C@]314` [17b, 14-(Benzyloxy)-5′-(4-chlorophenyl)-17-(cyclopropylmethyl)-6,7-didehydro-4,5α-epoxy-3-hydroxypyrido[2′,3′:6,7]morphinan], the Kb on DOR [1] worked out at 0.64 ± 0.11 nM; at hMOR [3], 11 ± 1 nM; at hKOR [4] it was 13 ± 3 nM. For the same compound, the “MOR EC50” value at hMOR [2] was “no stim”. The “DOR EC50” value at DOR [5] is on record as “no stim”.

Regarding `CO[C@@]12Cc3cc(-c4ccc(Cl)cc4)cnc3[C@@H]3Oc4c(O)ccc5c4[C@@]31CCN(CC1CC1)[C@@H]2C5` [17a, 5′-(4-Chlorophenyl)-17-(cyclopropylmethyl)-6,7-didehydro-4,5α-epoxy-3-hydroxy-14-methoxypyrido[2′,3′:6,7]morphinan], the “MOR EC50” value on hMOR [2] is recorded as “no stim”. The “DOR EC50” value on DOR [5] is recorded as “no stim ^b”.

On to `CN1CC[C@]23c4c5ccc(O)c4O[C@H]2c2ncc(-c4ccc(Cl)cc4)cc2C[C@@]3(OCCCc2ccccc2)[C@H]1C5` [17h, 5′-(4-Chlorophenyl)-6,7-didehydro-4,5α-epoxy-3-hydroxy-17-methyl-14-(3-phenylpropoxy)pyrido[2′,3′:6,7]morphinan], for which the “dose for maximal antinociception” value with mice [6] is 1 nmol. In the series with mice [7], the “toxicity on repeated administration” value is “undue toxicity”. Further, the Kb on hKOR [4] worked out at 6.9 ± 0.02 nM. The compound further displayed an EC50 on DOR [5] of 0.27 ± 0.03 nM. Also, the “KOR EC50” value at hKOR [8] was “no stim”.

Consider `Oc1ccc2c3c1O[C@H]1c4ncc(-c5ccc(Cl)cc5)cc4C[C@@]4(OC/C=C/c5ccccc5)[C@@H](C2)N(CC2CC2)CC[C@]314` [17c, 5′-(4-Chlorophenyl)-14-cinnamyloxy-17-(cyclopropylmethyl)-6,7-didehydro-4,5α-epoxy-3-hydroxypyrido[2′,3′:6,7]morphinan], for which, at hMOR [2], the “MOR EC50” value is “no stim”. Further, on DOR [5], the “DOR EC50” value is “no stim”.
